Experimental data: the NIST ThermoML archive (doi:10.1021/acs.jced.9b00311)
± gives the expanded uncertainty stated by the source.

Assay: xn = mol fraction of the nth substance listed
Conditions: Liquid; for speed of sound: Frequency=3 MHz, Pulse-echo method; for mass density: Vibrating tube method

CCCCCCCCCCCC [dodecane] + O=C=O
Conditions	mass density, 303.15 K [kg/m3]	mass density, 313.15 K [kg/m3]	speed of sound, 303.15 K [m/s]	speed of sound, 313.15 K [m/s]
10000 kPa, x2 = 0	748.5 ± 0.8	741.6 ± 0.8	1318.5 ± 1.8	1281.7 ± 1.8
10000 kPa, x2 = 0.2032	–	–	1245.6 ± 1.7	1209.7 ± 1.8
10000 kPa, x2 = 0.205	756.3 ± 0.7	748.8 ± 0.7	–	–
10000 kPa, x2 = 0.3989	–	–	1152.2 ± 1.3	1114.6 ± 1.8
10000 kPa, x2 = 0.4	767.4 ± 0.6	758.7 ± 0.6	–	–
10000 kPa, x2 = 0.6007	–	–	1011.6 ± 1.5	969.6 ± 1.9
10000 kPa, x2 = 0.6008	784.3 ± 0.6	773.3 ± 0.6	–	–
10000 kPa, x2 = 0.7497	802.5 ± 0.6	786.6 ± 0.6	–	–
10000 kPa, x2 = 0.7498	–	–	845.5 ± 1.5	793.2 ± 1.9
10000 kPa, x2 = 0.8528	–	–	680.5 ± 1.6	630 ± 1.6
10000 kPa, x2 = 0.853	815.6 ± 0.5	790.9 ± 0.8	–	–
10000 kPa, x2 = 0.9348	817.8 ± 0.6	771.4 ± 0.9	–	–
10000 kPa, x2 = 0.9771	801 ± 1.1	721.2 ± 1.7	–	–
10000 kPa, x2 = 0.9877	790.6 ± 1.4	689.4 ± 2.4	–	–
20000 kPa, x2 = 0	755.1 ± 0.9	748.5 ± 0.9	1372.4 ± 1.8	1337.9 ± 1.8
20000 kPa, x2 = 0.2032	–	–	1304.1 ± 1.7	1269.6 ± 1.8
20000 kPa, x2 = 0.205	763.6 ± 0.8	756.5 ± 0.8	–	–
20000 kPa, x2 = 0.3989	–	–	1214.9 ± 1.5	1180.3 ± 1.7
20000 kPa, x2 = 0.4	776.3 ± 0.7	768.1 ± 0.7	–	–
20000 kPa, x2 = 0.6007	–	–	1084.4 ± 1.4	1046.4 ± 1.7
20000 kPa, x2 = 0.6008	796.3 ± 0.7	786.1 ± 0.6	–	–
20000 kPa, x2 = 0.7497	820.5 ± 0.6	806.5 ± 0.6	–	–
20000 kPa, x2 = 0.7498	–	–	937 ± 1.4	893.3 ± 1.7
20000 kPa, x2 = 0.8528	–	–	800.1 ± 1.5	751.2 ± 1.7
20000 kPa, x2 = 0.853	844.1 ± 0.6	824.1 ± 0.5	–	–
20000 kPa, x2 = 0.9348	868.5 ± 0.5	838.9 ± 0.6	–	–
20000 kPa, x2 = 0.9771	883.1 ± 0.6	842 ± 0.7	–	–
20000 kPa, x2 = 0.9877	887.1 ± 0.6	841.4 ± 0.8	–	–
30000 kPa, x2 = 0	761.3 ± 1	754.8 ± 0.9	1421.4 ± 1.8	1389.6 ± 1.8
30000 kPa, x2 = 0.2032	–	–	1356.4 ± 1.8	1322.9 ± 1.7
30000 kPa, x2 = 0.205	770.5 ± 0.9	763.6 ± 0.8	–	–
30000 kPa, x2 = 0.3989	–	–	1272 ± 1.6	1238.8 ± 1.7
30000 kPa, x2 = 0.4	784.3 ± 0.8	776.4 ± 0.7	–	–
30000 kPa, x2 = 0.6007	–	–	1147.4 ± 1.4	1112.9 ± 1.6
30000 kPa, x2 = 0.6008	806.8 ± 0.7	797.2 ± 0.7	–	–
30000 kPa, x2 = 0.7497	835.2 ± 0.6	822.5 ± 0.6	–	–
30000 kPa, x2 = 0.7498	–	–	1010.4 ± 1.4	971.4 ± 1.6
30000 kPa, x2 = 0.8528	–	–	885.8 ± 1.5	843.1 ± 1.5
30000 kPa, x2 = 0.853	865.6 ± 0.6	847.6 ± 0.6	–	–
30000 kPa, x2 = 0.9348	902.4 ± 0.6	877.6 ± 0.5	–	–
30000 kPa, x2 = 0.9771	929.5 ± 0.6	897.3 ± 0.6	–	–
30000 kPa, x2 = 0.9877	937.7 ± 0.7	902.7 ± 0.6	–	–
40000 kPa, x2 = 0	766.9 ± 1	760.8 ± 1	1468.5 ± 1.9	1436.8 ± 1.8
40000 kPa, x2 = 0.2032	–	–	1404.4 ± 1.7	1373.3 ± 1.7
40000 kPa, x2 = 0.205	776.8 ± 0.9	770.3 ± 0.9	–	–
40000 kPa, x2 = 0.3989	–	–	1323 ± 1.6	1291 ± 1.7
40000 kPa, x2 = 0.4	791.6 ± 0.8	784.2 ± 0.8	–	–
40000 kPa, x2 = 0.6007	–	–	1204.4 ± 1.5	1170.9 ± 1.7
40000 kPa, x2 = 0.6008	816 ± 0.7	807.2 ± 0.7	–	–
40000 kPa, x2 = 0.7497	847.6 ± 0.6	836.1 ± 0.6	–	–
40000 kPa, x2 = 0.7498	–	–	1073.3 ± 1.4	1037.1 ± 1.6
40000 kPa, x2 = 0.8528	–	–	955.4 ± 1.4	917.2 ± 1.5
40000 kPa, x2 = 0.853	883.1 ± 0.7	866.6 ± 0.6	–	–
40000 kPa, x2 = 0.9348	928.1 ± 0.6	906.5 ± 0.6	–	–
40000 kPa, x2 = 0.9771	963.1 ± 0.6	935.9 ± 0.6	–	–
40000 kPa, x2 = 0.9877	973.9 ± 0.7	944.5 ± 0.7	–	–
50000 kPa, x2 = 0	772 ± 1	766.3 ± 1.1	1512.3 ± 1.9	1481.5 ± 1.9
50000 kPa, x2 = 0.2032	–	–	1449.9 ± 1.8	1419.2 ± 1.8
50000 kPa, x2 = 0.205	782.5 ± 1	776.4 ± 1	–	–
50000 kPa, x2 = 0.3989	–	–	1370.3 ± 1.6	1339.9 ± 1.7
50000 kPa, x2 = 0.4	798.2 ± 0.9	791.2 ± 0.9	–	–
50000 kPa, x2 = 0.6007	–	–	1256 ± 1.5	1224.3 ± 1.7
50000 kPa, x2 = 0.6008	824.4 ± 0.8	816.1 ± 0.8	–	–
50000 kPa, x2 = 0.7497	858.7 ± 0.6	848 ± 0.6	–	–
50000 kPa, x2 = 0.7498	–	–	1128.9 ± 1.4	1095.2 ± 1.6
50000 kPa, x2 = 0.8528	–	–	1015.3 ± 1.4	979.7 ± 1.4
50000 kPa, x2 = 0.853	898.1 ± 0.7	882.5 ± 0.7	–	–
50000 kPa, x2 = 0.9348	950.3 ± 0.6	929.7 ± 0.6	–	–
50000 kPa, x2 = 0.9771	990.1 ± 0.7	965.6 ± 0.6	–	–
50000 kPa, x2 = 0.9877	1002.9 ± 0.8	976.7 ± 0.7	–	–
60000 kPa, x2 = 0	776.8 ± 1.1	771.5 ± 1.1	1553.7 ± 1.9	1524.2 ± 1.9
60000 kPa, x2 = 0.2032	–	–	1492.5 ± 1.8	1462.4 ± 1.8
60000 kPa, x2 = 0.205	787.9 ± 1	782.1 ± 1	–	–
60000 kPa, x2 = 0.3989	–	–	1414.9 ± 1.6	1385.2 ± 1.7
60000 kPa, x2 = 0.4	804.4 ± 0.9	797.6 ± 0.9	–	–
60000 kPa, x2 = 0.6007	–	–	1303.2 ± 1.5	1272.9 ± 1.7
60000 kPa, x2 = 0.6008	832.1 ± 0.8	824.2 ± 0.8	–	–
60000 kPa, x2 = 0.7497	868.7 ± 0.7	858.7 ± 0.7	–	–
60000 kPa, x2 = 0.7498	–	–	1179.5 ± 1.4	1147 ± 1.5
60000 kPa, x2 = 0.8528	–	–	1068.3 ± 1.4	1034.9 ± 1.4
60000 kPa, x2 = 0.853	911.4 ± 0.8	896.4 ± 0.7	–	–
60000 kPa, x2 = 0.9348	967.4 ± 0.7	949.4 ± 0.6	–	–
60000 kPa, x2 = 0.9771	1012.8 ± 0.7	990.3 ± 0.7	–	–
60000 kPa, x2 = 0.9877	1027.1 ± 0.8	1003.1 ± 0.8	–	–
70000 kPa, x2 = 0	781.4 ± 1.1	776.4 ± 1.1	1593.3 ± 2	1564.6 ± 1.9
70000 kPa, x2 = 0.2032	–	–	1532.6 ± 1.8	1503.9 ± 1.8
70000 kPa, x2 = 0.205	793.2 ± 1	787.4 ± 1	–	–
70000 kPa, x2 = 0.3989	–	–	1456.7 ± 1.7	1427.5 ± 1.8
70000 kPa, x2 = 0.4	810.2 ± 0.9	803.6 ± 0.9	–	–
70000 kPa, x2 = 0.6007	–	–	1346.4 ± 1.5	1317.9 ± 1.7
70000 kPa, x2 = 0.6008	839.3 ± 0.8	831.6 ± 0.8	–	–
70000 kPa, x2 = 0.7497	878 ± 0.8	868.2 ± 0.7	–	–
70000 kPa, x2 = 0.7498	–	–	1225.4 ± 1.4	1195.2 ± 1.6
70000 kPa, x2 = 0.8528	–	–	1116.7 ± 1.5	1084.8 ± 1.4
70000 kPa, x2 = 0.853	923.3 ± 0.8	908.7 ± 0.8	–	–
70000 kPa, x2 = 0.9348	983.5 ± 0.7	966.6 ± 0.7	–	–
70000 kPa, x2 = 0.9771	1032.6 ± 0.8	1011.6 ± 0.7	–	–
70000 kPa, x2 = 0.9877	1048.1 ± 0.8	1025.8 ± 0.8	–	–
